This note sets out measurements from patent US5731293A, “Esculetin derivatives, method for manufacture thereof, and pharmaceutical composition” (Kureha Chemical Industry Co., Ltd., priority 1994, dated 1998).

For data set [1], the system named is Wistar male rats. In words: Acute toxicity, oral, male rats, 7-day observation. The note with it: 1000 and 2000 mg/kg, 7 days. In kind it is in vivo, rat. The protocol: (§1) The toxicity of the esculetin derivatives of the present invention was examined. Typical examples of the present derivatives were administered orally at a dose of 2000 mg/kg (body weight) to male mice and male rats which were then observed for seven days. No deaths and no remarkable toxicity were observed. The esculetin derivatives of the present invention are extremely safe compounds (see Example 13).
(§2) The acute toxicity of the esculetin derivatives of the present invention was examined using Crj: CD-1 (ICR) male mice (6 weeks old) and Wistar male rats (6 weeks old). After 6-(β-2-acetamido-2-deoxy-D-glucopyranosyloxy)-7-(N,N-dimethylcarbamoyloxy)coumarin [Ib-2] […] In the experiments as above, two animals were used for each group.

In data set [2] the test system is Crj: CD-1 (ICR) male mice. In words: Acute toxicity, oral, male mice, 7-day observation. The conditions noted are these: 1000 and 2000 mg/kg, 7 days. In kind it is in vivo, mouse. As for the experimental part: as §1, §2
Data set [3] deals with interstitial collagenase (MMP-1). In words: Inhibition of production of interstitial collagenase (MMP-1) in rabbit cartilage organ culture system, IL-1α stimulated. The data set is classed as cell-based, rabbit (New Zealand White). The conditions noted are these: IL-1α 100 units/ml, 48 hours; rabbit articular cartilage; values only in FIG. 1. As for the experimental part: After the articular cartilages were collected from the shoulder and knee of rabbits (New Zealand White Rabbits, male, 6 weeks old) and divided into small pieces, cultivation experiment was started using Dulbecco's MEM medium containing 0.2% lactoalbumin. The compounds to be tested were dissolved in dimethylsulfoxide (DMSO) and then added to the medium. The concentration of DMSO was 0.25% by volume to the medium. After 2 hours from addition of the compounds to be tested, 100 units/ml of interleukin-1α (hereinafter referred to as the IL-1α) was added as a stimulant, and the cultivation was performed for 48 hours. Thereafter, the activity of MMP-1 in the supernatant of the culture was measured. Collageno kit (CLN-100) (Cosmo Bio Co., Ltd.) was used for the measurement of MMP-1.
The results are shown as the value of the mean value±standard error (n=4 per a group). As the esculetin derivative of the present invention, 6-(β-2-acetamido-2-deoxy-D-glucopyranosyloxy)-7-(N,N-dimethylcarbamoyloxy)coumarin [Ib-2] was used.
The abscissa is the percentage of the amounts of MMP-1 produced by adding both IL-1α and the compound to be tested as compared to the amounts of MMP-1 produced by the addition of IL-1α alone. When neither IL-1α nor the compound to be tested were added as a control test, MMP-1 was hardly produced.

Data set [4] can be described thus: Pharmacokinetic analysis in mouse femoral head cartilage (FHC) model. The note with it: oral, 534 mg/kg [Ib-2] vs esculetin 187 mg/kg; values only in FIG. 2. In kind it is in vivo, BALB/C female mice implanted with FHC of S. D. male rats. As for the experimental part:
The model mice were prepared in accordance with the method described in D. A. Willoughby et al., Agents Actions, vol. 38, pp. 126 to 134, 1993.
The left and right femoral head cartilages (FHC) were sterilely excised from S. D. male rats in a clean bench. The excised FHC's were washed with a Ham F-12 culture medium containing antibiotics and the wet weight was measured. Then, the FHC's were wrapped in two cotton sheets (about 1 cm×1 cm) and cooled with ice in the culture medium for storage until implantation. The FHC's were implanted sterilely under the dorsal skin of BALB/C female mice whose dorsal regions were shaved. The incisions were stitched, and then completely sealed with surgical adhesive (Toa Gosei, Japan).
The above mouse FHC model were used to pharmacokinetically compare esculetin and the esculetin derivative [Ib-2] of the present invention. Esculetin (187 mg/kg) and an equimolar amount, i.e., 534 mg/kg, of the esculetin derivative [Ib-2] of the present invention were administered orally three days after the implantation of the FHC. The FHC's were periodically removed and digested with papain. Then, an amount of the compounds taken up in the FHC was analyzed by high performance liquid chromatography. In the above experiments, three mice were used for each group.

On to `CC(=O)N[C@H]1[C@H](Oc2cc3ccc(=O)oc3cc2OC(=O)N(C)C)O[C@H](CO)[C@@H](O)[C@@H]1O` [Ib-2, 6-(β-2-acetamido-2-deoxy-D-glucopyranosyloxy)-7-(N,N-dimethylcarbamoyloxy)coumarin], for which, in data set [1], the deaths entry is recorded as “No deaths were observed”; the “general state and body weight in comparison with the control group” value is “no change was observed”. In data set [2], the deaths entry was “No deaths were observed”; the “general state and body weight in comparison with the control group” value was “no change was observed”. The “amounts of MMP-1 released under IL-1α stimulated condition” value in data set [3] is given as “reduced the amounts of MMP-1 under IL-1α stimulated condition”. Further, the “amount of compound taken up and retained in the FHC” value in data set [4] was “taken up and retained in the FHC for a long time in a higher concentration as compared to esculetin”.
